In BigSolDB 2.1:

Cl.N=C(N=C(N)N)N1CCOCC1
solubility (mole fraction)
Details	283.15 K	293.15 K	303.15 K	313.15 K	323.15 K
in acetone	1.9e-05	3.3e-05	6.2e-05	0.000107	0.000186
in acetonitrile	9.1e-05	0.000106	0.000117	0.000128	0.000149
in ethanol	0.0023	0.00283	0.00356	0.00461	0.00615
in ethyl acetate	7.7e-05	9.7e-05	0.000117	0.000138	0.000161
in isobutanol	0.000621	0.000696	0.000915	0.00124	0.00157
in isopropanol	0.000482	0.00062	0.00079	0.001	0.00124
in methanol	0.013	0.0215	0.0268	0.0341	0.0423
in n-butanol	0.000682	0.000834	0.00101	0.00137	0.00184
in n-pentanol	0.00045	0.000545	0.00061	0.000729	0.000967
in n-propanol	0.0011	0.00136	0.00161	0.00206	0.00279
in sec-butanol	0.000297	0.000358	0.000445	0.000534	0.000732
in water	0.0565	0.0653	0.0853	0.105	0.127
